The text below walks through data of patent publication US10662194B2, “Substituted 6-anilino-9-heterocyclylpurine derivatives for inhibition of plant stress” (UNIVERZITA PALACKEHO V OLOMOUCI, priority 2014, dated 2020).

Series [1] deals with ARR5:GUS reporter gene. The series is described as follows: Induction of cytokinin reporter ARR5:GUS in transgenic Arabidopsis plants. As to conditions: 0.01-10 μM, 17 h, FIG. 2. The format is in vivo. Here is the method: Cytokinins induce in Arabidopsis transcription of gene ARR5, a member of A-type response regulator family classified as cytokinin primary response genes being expressed down-stream of sensing by cytokinin receptors. We cultivated transgenic Arabidopsis plants harbouring PARR5::GUS reporter (D'Agostino et al. Plant Physiol. 124: 1706-1717, 2000) in MS medium containing cytokinin BAP, CKX inhibitor INCYDE and novel compounds 12 and 91 in concentrations 0.01, 0.1, 1, 5, 10 μM; DMSO (0.1%) was tested as solvent control. Seeds were surface-sterilized in 70% ethanol and then placed into wells of 6-well microtiter plate (TPP, Switzerland) containing 3 mL of MS medium in each well. After sowing plates were pretreated in dark at 4° C. to synchronize the germination of the seeds. […] Quantitative estimation of the level of ARR5:GUS gene induction was done according to method published by Romanov et al. (Romanov et al. FEBS Letters 515: 39-43, 2002). After extraction of proteins the GUS activity was determined using incubation with fluorogenic substrate MUG (4-methylumbelliferyl glucuronid; 1 h, 37° C.) and then fluorescence 365 nm and 460 nm (excitation and emission wavelengths) was recorded, as described in detail by Spíchal et al. (Spíchal et al. Plant and Cell Physiology 45: 1299-1305, 2004).

Series [2] concerns winter wheat variety Diadem. The experiment in a line: Seed coating, tillering of winter wheat (field experiment). The format is in vivo. As to conditions: for Number of medium tillers (% of control) / Number of productive tillers (% of control) / Number of weak tillers (% of control): Olomouc, 2012. Here is the method:
To evaluate the effect of seed coating with compound 12 on morphological yield forming traits of winter wheat field plot experiment was performed in year 2012 on locality Olomouc, Czech Republic. Seeds of winter weat bakery variety Diadem (Selgen) were coated with 10 and 50 μM concentration of compound 12 mixed into seed treatment agent Cruiser 350FS (Syngenta; 10 L of solution per 1000 kg of seeds), seeds coated with only Cruiser 350FS were used for control variant. The seeds were dried and then sown in the sowing rate 3.500.000 seeds per hectare in 4 replications per each variant in randomized positions (each replication was 10 square meter plot). The plants were analyzed for number of productive tillers, medium tillers and weak tillers.

The subject of series [3] is shoot rosettes of Arabidopsis. The experiment in a line: Leaf chlorophyll degradation in dark-incubated shoot rosettes. In kind it is in vivo. The settings on record: 6 days in the dark. Here is the method:
The effect of the compound 12 on retention of chlorophyll in the dark treated plants was tested using app. 18 DAG (days after germination) old Arabidopsis plants grown in vitro on standard MS medium (16 h/8 h light/dark regime, light intensity 120 μmol·m^−l·s^−1). Shoots of the plants were excised from the roots and the whole rossetes were placed into 6-well plate (one rosete per well) into water (3 mL per well) containing 0.01% DMSO (solvent control), or compound 12, cytokinin BAP and CKX inhibitor INCYDE (2-chloro-6-(3-methoxyanilino)purine), in concentrations of 0.01, 0.1, 1 and 10 μM. The plates were then incubated in the dark for 6 days at 25° C. After incubation chlorophyll from each rosette was extracted into 1.8 mL of 80% ethanol, during 30 min of heating to 80° C. The chlorophyll content in extracts was measured spectrofotometricaly at 665 nm. […] In this concentration the rosettes kept around 95% of chlorophyll.

Series [4] has as its target T1, CRE1/AHK4 (Arabidopsis thaliana, UniProt Q9C5U0).
T1 construct: expressed in transfected cells; host or cells: Escherichia coli strain KMI001
The experiment in a line: Escherichia coli cytokinin receptor activation assay (CRE1/AHK4). In kind it is cell-based. The settings on record: 10^−7 M-5×10^−5 M, compared to trans-zeatin, FIG. 1. Here is the method:
Escherichia coli strains KMI001 harbouring the plasmid pIN-III-AHK4 or pSTV28-AHK3 were grown overnight at 25° C. in M9 media enriched with 0.1% casamino acids to OD600˜1. The preculture was diluted 1:600 in 1 ml M9 medium containing 0.1% casamino acids and 1 μL stock solution of either the tested compound (10^−7 M-5×10^−5 M) or solvent control (DMSO, ethanol, methanol) were added. The cultures were further grown at 25° C. in microtiter plate, 200 μL per well. […] The cultures were centrifuged and 50 μL aliquots of the supernatant were transferred to microtiter plate containing 2 μL 50 mM 4-methyl umbelliferyl galactoside which was subsequently incubated for 1 h at 37° C. The reaction was stopped by adding 100 μL 0.2 M Na2CO3. Fluorescence was measured using a Fluoroscan Ascent (Labsystems, Finland) at the excitation and emission wavelengths of 365 and 460 nm, respectively. The OD600 of remaining culture was determined and β-galactosidase activity was calculated as nmol 4-methylumbelliferone×OD600^−1×h^−1.

Series [5] can be described thus: Calcein AM viability/cytotoxicity assay, MRC-5. In kind it is cell-based. As to conditions: human, MRC-5 lung fibroblasts; MRC-5, 72 h, FIG. 11; read-out: IC50, concentration reducing number of viable cells to 50%. The text has this:
Absence of toxic effects against mammalian (especially human) cell lines in a wide concentration range is one of the requirements on compounds intended for use in agriculture and medicine. Because toxic compounds negatively influence metabolic processes in cells, many standard cytotoxicity assays are based on measurement of metabolisation rate of various artificial substrates. Resulting product is then quantified e.g. by means of spectrometry. The assays can be easily modified for use in 96-well plates. For evaluation of cytotoxic effect of compounds of this invention, a microtiter assay based on quantification of metabolisation of Calcein AM was used. The assay is widely used in drug screening programs and in chemosensitivity testing. In live cells, Calcein AM is enzymatically hydrolysed and accumulation of resulting calcein is manifested by green fluorescence. The cytotoxicity of the studied compounds was determined with human fibroblast lines MRC-5 (lung fibroblasts) and BJ (foreskin fibroblasts). […] The fluorescence of the live cells was measured at 485 nm/538 nm (excitation/emission) with a Fluoroskan Ascent microplate reader (Labsystems). […]

For series [6], the system named is Salmonella typhimurium strains TA100 and TA98. The experiment in a line: Ames MPF 98/100 Mutagenicity Assay. In kind it is cell-based. The settings on record: up to 100 μM, +/−S9, FIG. 12. Here is the method: The compound 12 was tested using Ames MPF™ 98/100 Mutagenicity Assay kit (Aniara, Ohio) that is employing Salmonella typhimurium strains TA100 (for the detection of base substitution mutations) and TA98 (for the detection of frameshift mutations) according to the instructions for use.

Marks after values point to notes of the source that are not given here.

T1 sequence (Q9C5U0 whole entry): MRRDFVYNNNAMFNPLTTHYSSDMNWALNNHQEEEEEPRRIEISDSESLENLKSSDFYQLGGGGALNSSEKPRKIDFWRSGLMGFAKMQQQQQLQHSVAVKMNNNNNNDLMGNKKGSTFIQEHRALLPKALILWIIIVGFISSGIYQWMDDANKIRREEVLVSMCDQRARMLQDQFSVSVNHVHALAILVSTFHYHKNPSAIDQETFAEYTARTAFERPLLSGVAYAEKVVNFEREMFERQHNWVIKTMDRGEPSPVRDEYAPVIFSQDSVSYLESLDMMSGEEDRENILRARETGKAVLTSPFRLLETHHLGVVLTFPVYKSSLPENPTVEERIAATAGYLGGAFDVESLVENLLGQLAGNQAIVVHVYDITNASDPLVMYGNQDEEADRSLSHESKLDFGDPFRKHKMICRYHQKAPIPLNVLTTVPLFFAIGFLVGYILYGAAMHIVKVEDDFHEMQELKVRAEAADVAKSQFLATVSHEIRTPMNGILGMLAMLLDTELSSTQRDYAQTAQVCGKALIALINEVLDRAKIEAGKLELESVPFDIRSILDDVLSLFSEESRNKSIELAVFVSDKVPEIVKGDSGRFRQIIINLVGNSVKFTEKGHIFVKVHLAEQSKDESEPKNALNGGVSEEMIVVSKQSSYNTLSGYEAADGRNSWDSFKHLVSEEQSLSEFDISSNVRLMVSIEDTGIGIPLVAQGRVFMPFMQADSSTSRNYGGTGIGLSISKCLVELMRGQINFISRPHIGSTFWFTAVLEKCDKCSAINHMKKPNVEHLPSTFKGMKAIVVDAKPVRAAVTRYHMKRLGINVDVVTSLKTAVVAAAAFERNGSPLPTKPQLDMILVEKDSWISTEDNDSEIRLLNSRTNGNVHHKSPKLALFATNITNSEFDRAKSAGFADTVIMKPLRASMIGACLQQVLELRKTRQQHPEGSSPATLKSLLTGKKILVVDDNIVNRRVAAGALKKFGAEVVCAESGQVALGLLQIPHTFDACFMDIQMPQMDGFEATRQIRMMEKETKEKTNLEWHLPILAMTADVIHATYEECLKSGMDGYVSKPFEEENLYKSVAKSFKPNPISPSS

As to `COc1cccc(Nc2nc(Cl)nc3c2ncn3C2CCCCO2)c1` (stereo not shown) [compound 12, 2-chloro-6-(3-methoxyanilino)-9-(tetrahydropyran-2-yl)purine], in series [1], the “induction of ARR5:GUS expression” value is “dose-dependent induction of ARR5:GUS expression”. Besides, in series [2] (10 μM), the “Number of medium tillers (% of control)” value is 75.0* % of control, the “Number of productive tillers (% of control)” value was 106.5 % of control and the “Number of weak tillers (% of control)” value was 102.2 % of control. In addition, in series [2] (50 μM), the “Number of medium tillers (% of control)” value is on record as 78.1* % of control, the “Number of productive tillers (% of control)” value is 124.2** % of control and the “Number of weak tillers (% of control)” value was 80.4 % of control. Also, the “number of productive tillers compared to untreated control” value in series [2] (10 and 50 μM) is reported as 106-124%. The “chlorophyll kept in rosettes” value in series [3] (1 μM) is on record as “around 95%”. For the same compound, the “retention of chlorophyll, activity versus BAP and INCYDE” value in series [3] (0.01-10 μM, FIG. 7) is “highest activity in 1 μM concentration”. Also, in series [4], the “ability to activate cytokinin receptor CRE1/AHK4” value is listed as “very low ability to activate”. The IC50 at 72 h in series [5] is over 100 µM. Also, the “mutagenic potential in Ames test” value in series [6] is listed as “did not score positively”.
